Measured values reported in the NIST ThermoML archive (doi:10.1016/j.jct.2016.04.002).
± gives the expanded uncertainty stated by the source.

What was measured:
[1] = Molar enthalpy of transition or fusion; settings: Crystal; DSC
[2] = Crystal; DTA

SMILES: O=C(O)[C@]1(O)C[C@@H](O)[C@@H](O)[C@H](O)C1
- Molar enthalpy of transition or fusion [1]: 12.1 ± 0.526 kcal/mol
- Normal melting temperature [2]: 167.01 ± 1.1 °C
